Assay results taken from patent US8975406B2, “Compound useful for the treatment of degenerative and inflammatory diseases” (Galapagos N.V., priority 2011, dated 2015).

How the values were obtained:
Recombinant human JAK2 = target: T1, Recombinant human JAK2 (Homo sapiens, UniProt O60674); test: JAK2 Ulight-JAK1 peptide assay; format: biochemical; conditions: Ulight-JAK1(tyr1023) peptide, 7.5 μM ATP
T1 construct: catalytic domain (amino acids 808-1132; catalog number PV4210); GST; purchased Invitrogen PV4210
T1 sequence (O60674 808-1132): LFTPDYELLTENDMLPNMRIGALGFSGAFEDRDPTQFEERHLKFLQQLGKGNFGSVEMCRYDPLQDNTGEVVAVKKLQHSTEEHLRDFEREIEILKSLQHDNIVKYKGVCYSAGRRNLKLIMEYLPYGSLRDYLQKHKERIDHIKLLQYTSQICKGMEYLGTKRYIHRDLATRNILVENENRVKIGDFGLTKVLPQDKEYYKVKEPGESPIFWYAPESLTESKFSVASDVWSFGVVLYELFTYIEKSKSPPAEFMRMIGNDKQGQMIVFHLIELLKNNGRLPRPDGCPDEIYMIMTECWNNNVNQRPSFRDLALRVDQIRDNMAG
Method: Recombinant human JAK2 (catalytic domain, amino acids […]; catalog number PV4210) was purchased from Invitrogen. 0.0125 mU of JAK2 was incubated with 25 nM Ulight-JAK1(tyr1023) peptide (Perkin Elmer catalog number TRF0121) in kinase reaction buffer (25 mM HEPES pH7.0, 0.01% Triton X-100, 7.5 mM MgCl2, 2 mM DTT, 7.5 μM ATP) with or without 4 μL containing test compound or vehicle (DMSO, 1% final concentration), in a total volume of 20 μL, in a white 384 Opti plate (Perkin Elmer, catalog number 6007290). After 60 min at room temperature, reactions were stopped by adding 20 μL/well of detection mixture (1× detection buffer (Perkin Elmer, catalog number CR97-100C), 0.5 nM Europium-anti-phosphotyrosine (PT66) (Perkin Elmer, catalog number AD0068), 10 mM EDTA). Readout is performed using the Envision with excitation at 320 nm and measuring emission at 615 nm (Perkin Elmer). Kinase activity was calculated by subtracting relative fluorescence units (RFU) obtained in the presence of a positive control inhibitor (10 μM staurosporine) from RFU obtained in the presence of vehicle. The ability of a test compound to inhibit this activity was determined as: Percentage inhibition=((RFU determined for sample with test compound present−RFU determined for sample with positive control inhibitor)divided by(RFU determined in the presence of vehicle−RFU determined for sample with positive control inhibitor))*100.
Dose dilution series were prepared for each compound enabling the testing of dose-response effects in the JAK2 assay and the calculation of the IC50 for the compound. Each compound is routinely tested at concentration of 20 μM followed by a ⅕ serial dilution, 10 points in a final concentration of 1% DMSO. When potency of compound series increases, more dilutions are prepared and/or the top concentration are lowered (e.g. 5 μM, 1 μM). The data are expressed as the average IC50 from the assays±standard error of the mean.

[1] = target: T2, Recombinant human JAK3 catalytic domain (Homo sapiens, UniProt P52333); test: JAK3 inhibition assay; format: biochemical; conditions: polyGT substrate, 33P-gamma-ATP filter assay, 1 μM ATP
T2 construct: catalytic domain (amino acids 795-1124; catalog number 08-046); purchased Carna Biosciences 08-046
T2 sequence (P52333 795-1124): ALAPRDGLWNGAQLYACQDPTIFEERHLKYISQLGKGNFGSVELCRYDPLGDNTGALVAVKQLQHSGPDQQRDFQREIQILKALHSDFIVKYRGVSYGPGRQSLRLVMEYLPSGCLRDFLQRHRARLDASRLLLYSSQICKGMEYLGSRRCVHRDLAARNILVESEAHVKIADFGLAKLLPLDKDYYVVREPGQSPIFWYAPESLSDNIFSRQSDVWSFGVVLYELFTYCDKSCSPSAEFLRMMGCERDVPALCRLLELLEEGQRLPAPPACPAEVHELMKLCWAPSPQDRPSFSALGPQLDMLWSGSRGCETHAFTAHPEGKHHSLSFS
Method: Recombinant human JAK3 catalytic domain (amino acids 795-1124; catalog number 08-046) was purchased from Carna Biosciences. 0.5 ng JAK3 protein was incubated with 2.5 μg polyGT substrate (Sigma catalog number P0275) in kinase reaction buffer (25 mM Tris pH 7.5, 0.5 mM EGTA, 10 mM MgCl2, 2.5 mM DTT, 0.5 mM Na3VO4, 5 mM b-glycerolphosphate, 0.01% Triton X-100, 1 μM non-radioactive ATP, 0.25 μCi ^33P-gamma-ATP (Perkin Elmer, catalog number NEG602K001MC) final concentrations) with or without 5 μL containing test compound or vehicle (DMSO, 1% final concentration), in a total volume of 25 μL, in a polypropylene 96-well plate (Greiner, V-bottom). After 45 min at 30° C., reactions were stopped by adding 25 μL/well of 150 mM phosphoric acid. All of the terminated kinase reaction was transferred to prewashed (75 mM phosphoric acid) 96 well filter plates (Perkin Elmer catalog number 6005177) using a cell harvester (Perkin Elmer). Plates were washed 6 times with 300 μL per well of a 75 mM phosphoric acid solution and the bottom of the plates was sealed. 40 μL/well of Microscint-20 was added, the top of the plates was sealed and readout was performed using the Topcount (Perkin Elmer). Kinase activity was calculated by subtracting counts per min (cpm) obtained in the presence of a positive control inhibitor (10 μM staurosporine) from cpm obtained in the presence of vehicle. The ability of a test compound to inhibit this activity was determined as: Percentage inhibition=((cpm determined for sample with test compound present−cpm determined for sample with positive control inhibitor)divided by(cpm determined in the presence of vehicle−cpm determined for sample with positive control inhibitor))*100.
Dose dilution series were prepared for the compounds enabling the testing of dose-response effects in the JAK3 assay and the calculation of the IC50 for each compound. Each compound was routinely tested at concentration of 20 μM followed by a ⅕ serial dilution, 10 points in a final concentration of 1% DMSO. When potency of compound series increased, more dilutions were prepared and/or the top concentration was lowered (e.g. 5 μM, 1 μM).

[2] = test system: JAK-STAT signalling in HeLa cells; test: JAK-STAT signalling assay (pSTAT1(2)-luciferase reporter, OSM-triggered HeLa cells); format: cell-based; conditions: human OSM 33 ng/mL
Method: HeLa cells were maintained in Dulbecco's Modified Eagle's Medium (DMEM) containing 10% heat inactivated fetal calf serum, 100 U/mL penicillin and 100 μg/mL streptomycin. HeLa cells were used at 70% confluence for transfection. 20,000 cells in 87 μL cell culture medium were transiently transfected with 40 ng pSTAT1(2)-luciferase reporter (Panomics), 8 ng of LacZ reporter as internal control reporter and 52 ng of pBSK using 0.32 μL Jet-PEI (Polyplus) as transfection reagent per well in 96-well plate format. After overnight incubation at 37° C., 5% CO2, transfection medium was removed. 81 μL of DMEM+1.5% heat inactivated fetal calf serum was added. 9 μL compound at 10× concentration was added for 60 min and then 10 μL of human OSM (Peprotech) at 33 ng/mL final concentration.
All compounds were tested in duplicate starting from 20 μM followed by a ⅓ serial dilution, 8 doses in total (20 μM-6.6 μM-2.2 μM-740 nM-250 nM-82 nM-27 nM-9 nM) in a final concentration of 0.2% DMSO.
After overnight incubation at 37° C., 5% CO2 cells were lysed by adding 100 μL lysis buffer/well (PBS, 0.9 mM CaCl2, 0.5 mM MgCl2, 10% Trehalose, 0.05% Tergitol NP9, 0.3% BSA).
40 μL of cell lysate was used to read β-galactosidase activity by adding 180 μL β-Gal solution (30 μl ONPG 4 mg/mL+150 μL β-Galactosidase buffer (0.06 M Na2HPO4, 0.04 M NaH2PO4, 1 mM MgCl2)) for 20 min. The reaction was stopped by addition of 50 μL Na2CO3 1 M. Absorbance was read at 405 nm.
Luciferase activity was measured using 40 μL cell lysate plus 40 μL of Steadylite® as described by the manufacturer (Perkin Elmer), on the Envision (Perkin Elmer).
Omitting OSM was used as a positive control (100% inhibition). As negative control 0.5% DMSO (0% inhibition) was used. The positive and negative controls were used to calculate z′ and ‘percent inhibition’ (PIN) values. Percentage inhibition=((fluorescence determined in the presence of vehicle−fluorescence determined for sample with test compound present)divided by(fluorescence determined in the presence of vehicle−fluorescence determined for sample without trigger))*100.
PIN values were plotted for compounds tested in dose-response and EC50 values were derived.

| Structure (SMILES) | IC50 (Recombinant human JAK2) [nM] | IC50 [1] [nM] | IC50 [2] [nM] |
| --- | --- | --- | --- |
| O=C(Nc1nn2cccc(-c3ccc(CN4CCS(=O)(=O)CC4)cc3)c2c1F)C1CC1 [Compound 11, Cyclopropanecarboxylic acid {4-[4-(1,1-dioxo-thiomorpholin-4-ylmethyl)-phenyl]-3-fluoro-pyrazolo[1,5-a]pyridin-2-yl}-amide] | 0.01 to 100 | 0.01 to 100 | 501 to 1000 |
| CS(=O)(=O)C1CCN(Cc2ccc(-c3cccn4nc(NC(=O)C5CC5)cc34)cc2F)CC1 [Compound 18, N-(4-(3-fluoro-4-((4-(methylsulfonyl)piperidin-1-yl)methyl)phenyl)pyrazolo[1,5-a]pyridin-2-yl)cyclopropanecarboxamide] | 0.01 to 100 | 101 to 500 | 101 to 500 |
| CC(=O)Nc1cc2c(-c3ccc(C(C)N4CCN(S(C)(=O)=O)CC4)cc3)cccn2n1 (stereo not drawn) [Compound 45, N-(4-(4-(1-(4-(methylsulfonyl)piperazin-1-yl)ethyl)phenyl)pyrazolo[1,5-a]pyridin-2-yl)acetamide] | 0.01 to 100 | 101 to 500 | 501 to 1000 |
| C[C@@H]1CN(S(C)(=O)=O)CCN1Cc1ccc(-c2cccn3nc(NC(=O)C4CC4)cc23)cc1 [Compound 44, (R)-N-(4-(4-((2-methyl-4-(methylsulfonyl)piperazin-1-yl)methyl)phenyl)pyrazolo[1,5-a]pyridin-2-yl)cyclopropanecarboxamide] | 0.01 to 100 | 0.01 to 100 | 101 to 500 |
| O=C(Nc1cc2c(-c3ccc(C(=O)N4CCCCC4)cc3)cccn2n1)C1CC1 [Compound 14, Cyclopropanecarboxylic acid {4-[4-(piperidine-1-carbonyl)-phenyl]-pyrazolo[1,5-a]pyridin-2-yl}-amide] | 0.01 to 100 | 101 to 500 | 101 to 500 |
| CS(=O)(=O)C1CCN(Cc2ccc(-c3cccn4nc(NC(=O)C5CC5)cc34)cc2)CC1 [Compound 17, N-(4-(4-((4-(methylsulfonyl)piperidin-1-yl)methyl)phenyl)pyrazolo[1,5-a]pyridin-2-yl)cyclopropanecarboxamide] | 0.01 to 100 | 101 to 500 | 501 to 1000 |
| O=C(Nc1cc2c(-c3ccc(CN4CCCCC45COC5)cc3)cccn2n1)C1CC1 [Compound 48, N-(4-(4-(2-oxa-5-azaspiro[3.5]nonan-5-ylmethyl)phenyl)pyrazolo[1,5-a]pyridin-2-yl)cyclopropanecarboxamide] | 101 to 500 | 0.01 to 100 | 501 to 1000 |
| CC(=O)Nc1cc2c(-c3ccc(CN4CCC(S(C)(=O)=O)CC4)c(F)c3)cccn2n1 [Compound 29, N-(4-(3-fluoro-4((4-(methylsulfonyl)piperidin-1-yl)methyl)phenyl)pyrazolo[1,5-a]pyridin-2-yl)acetamide] | 0.01 to 100 | 101 to 500 | > 1000 |
| O=C(Nc1cc2c(-c3ccc4[nH]ccc4c3)cccn2n1)C1CC1 [Compound 4, N-(4-(1H-indol-5-yl)pyrazolo[1,5-a]pyridin-2-yl)cyclopropanecarboxamide] | 0.01 to 100 | 0.01 to 100 | > 1000 |
| CC(=O)Nc1cc2c(-c3ccc(CN4CCN(S(C)(=O)=O)CC4)cc3)cccn2n1 [Compound 25, N-(4-(4-((4-(methylsulfonyl)piperazin-1-yl)methyl)phenyl)pyrazolo[1,5-a]pyridin-2-yl)acetamide] | 0.01 to 100 | 101 to 500 | 501 to 1000 |
| O=C(NCCc1ccccc1)c1ccc(-c2cccn3nc(NC(=O)C4CC4)cc23)cc1 [Compound 5, 4-(2-(cyclopropanecarboxamido)pyrazolo[1,5-a]pyridin-4-yl)-N-phenethylbenzamide] | 0.01 to 100 | > 1000 | 101 to 500 |
| C[C@@H](c1ccc(-c2cccn3nc(NC(=O)C4CC4)cc23)cc1)N1CCN(S(C)(=O)=O)CC1 [Compound 47, (S)-N-(4-(4-(1-(4-(methylsulfonyl)piperazin-1-yl)ethyl)phenyl)pyrazolo[1,5-a]pyridin-2-yl)cyclopropanecarboxamide] | 0.01 to 100 | 0.01 to 100 | 101 to 500 |
| CS(=O)(=O)N1CC[C@@H](Oc2ccc(-c3cccn4nc(NC(=O)C5CC5)cc34)cc2)C1 [Compound 49, (R)-N-(4-(4-(1-(methylsulfonyl)pyrrolidin-3-yloxy)phenyl)pyrazolo[1,5-a]pyridin-2-yl)cyclopropanecarboxamide] | > 1000 | 0.01 to 100 | 101 to 500 |
| CS(=O)(=O)C1CCN(Cc2ccc(-c3cccn4nc(NC(=O)C5CC5)c(Cl)c34)cc2)CC1 [Compound 19, N-(3-chloro-4-(4-((4-(methylsulfonyl)piperidin-1-yl)methyl)phenyl)pyrazolo[1,5-a]pyridin-2-yl)cyclopropanecarboxamide] | 501 to 1000 | > 1000 | > 1000 |
| CC(=O)Nc1cc2c(-c3ccc(CN4CCN(S(C)(=O)=O)C[C@H]4C)cc3)cccn2n1 [Compound 24, (R)-N-(4-(4-((2-methyl-4-(methylsulfonyl)piperazin-1-yl)methyl)phenyl)pyrazolo[1,5-a]pyridin-2-yl)acetamide] | 501 to 1000 | 501 to 1000 | > 1000 |
| N#Cc1ccc(COc2ccc(-c3cccn4nc(NC(=O)C5CC5)cc34)cc2)cn1 [Compound 9, N-(4-(4-((6-cyanopyridin-3-yl)methoxy)phenyl)pyrazolo[1,5-a]pyridin-2-yl)cyclopropanecarboxamide] | 0.01 to 100 | 0.01 to 100 | 101 to 500 |
